From patent publication US20100285959A1, “HERBICIDAL MIXTURES” (priority 2006, published 2010)

Tests used:
[1] = system: velvetleaf (ABUTH); test: Test 16 greenhouse, post- and preemergence; conditions: 15 DAA
[2] = system: velvetleaf (ABUTH); test: Test 18 greenhouse, post- and preemergence; conditions: 15 DAA

Compound	Obs response, scale 0 to 100 ([1]; Postemergence, 7.5 g a.i./ha)	Obs response, scale 0 to 100 ([1]; Postemergence, 15 g a.i./ha)	Obs response, scale 0 to 100 ([1]; Postemergence, 30 g a.i./ha)	Obs response, scale 0 to 100 ([1]; Postemergence, 45 g a.i./ha)	Obs response, scale 0 to 100 ([1]; Preemergence, 7.5 g a.i./ha)	Obs response, scale 0 to 100 ([1]; Preemergence, 15 g a.i./ha)	Obs response, scale 0 to 100 ([1]; Preemergence, 30 g a.i./ha)	Obs response, scale 0 to 100 ([1]; Preemergence, 45 g a.i./ha)	Postemergence ABUTH Obs ([2]; alone at 7.5 g a.i./ha)	Preemergence ABUTH Obs ([2]; alone at 7.5 g a.i./ha)	Postemergence ABUTH Obs ([2]; alone at 15 g a.i./ha)	Preemergence ABUTH Obs ([2]; alone at 15 g a.i./ha)	Postemergence ABUTH Obs ([2]; alone at 30 g a.i./ha)	Preemergence ABUTH Obs ([2]; alone at 30 g a.i./ha)	Postemergence ABUTH Obs ([2]; alone at 45 g a.i./ha)	Preemergence ABUTH Obs ([2]; alone at 45 g a.i./ha)
C#CCN1C(=O)COc2cc(F)c(N3C(=O)C4=C(CCCC4)C3=O)cc21 [Flumioxazin]	36	47	52	69	58	65	93	100	–	–	–	–	–	–	–	–
C#CCOc1cc(-n2nc3n(c2=O)CCCC3)c(Cl)cc1Cl [Azafenidin]	–	–	–	–	–	–	–	–	46	18	73	35	81	67	86	68
